{"source": "patent US20150328245A1", "about": "“Agents for Eliminating Tumour-Initiating Cells” (priority 2012, published 2015)", "assay_type_in_all_cases": "cell-based", "key": {"DU145 [1]": {"tested_on": "DU145", "experiment": "In vitro colorimetric cell death assay (MTT)", "conditions": "Homo sapiens, DU-145; DU145, MTT, 48 hours; read-out: IC 50", "experimental": "(§1) It's an in vitro colorimetric assay for assessing cell viability where the cells are grown in Two-dimensional surface.\n(§2) An exemplary procedure for the assay follows. Cancer cells and normal cells were plated in a 96 well plate as per predetermined plating efficiency. The plate was incubated for 24 hours in a 5% CO2 atmosphere at 37 degrees Celsius, a range of concentrations of the compounds I-1, I-2 and I-3 as well as cisplatin (known chemotherapeutic agents) were added to the separate wells, the plate was incubated further for 48 hours in a 5% CO2 atmosphere, the plate was centrifuged twice at 3000 rpm for 3 minutes, the supernatant fluid was discarded, 100 uL of 0.5 mg/mL MTT solution was added and the plate was incubated for 4 hours in a 5% CO2 atmosphere at 37 degrees Celsius. The plate was then centrifuged twice at 3000 rpm for 3 minutes, supernatant, was aspirated very carefully, 200 uL DMSO was added to each well to solubilize MTT crystals and mixed well by shaking the plate, the plate was incubated for 10 minutes in a 5% CO2 atmosphere at 37 degrees Celsius, the plate placed on the shaker of an ELISA plate reader and the absorbance at 570 nm was measured, then the percentage of viable cells remaining was calculated by first subtracting the background absorbance then comparing to the absorbance of a non-drug-treated cell sample, and the results were plotted on a graph to determine the IC50 for the compounds and cisplatin."}, "L 929": {"tested_on": "L 929", "experiment": "In vitro colorimetric cell death assay (MTT)", "conditions": "Mus musculus, L929; L 929, MTT, 48 hours; read-out: IC 50", "experimental": "as §1, §2"}, "MCF-7 [2]": {"tested_on": "MCF-7", "experiment": "In vitro colorimetric cell death assay (MTT)", "conditions": "Homo sapiens, MCF7; MCF-7, MTT, 48 hours", "experimental": "as §1, §2"}, "[3]": {"tested_on": "MCF10A (normal breast cell line)", "experiment": "In vitro colorimetric cell death assay (MTT)", "conditions": "48 hours", "experimental": "as §1, §2"}, "MDAMB231 [4]": {"tested_on": "MDAMB231", "experiment": "In vitro colorimetric cell death assay (MTT)", "conditions": "Homo sapiens, MDA-MB-231, 48 hours", "experimental": "as §1, §2"}, "cancer cell lines": {"tested_on": "cancer cell lines", "experiment": "In vitro colorimetric cell death assay (MTT), overall statement", "experimental": "as §1, §2"}, "DU145 [5]": {"tested_on": "DU145", "experiment": "In vitro soft agar colony forming growth assay", "conditions": "Homo sapiens, DU-145, 168 h, one week", "experimental": "(§3) The Soft Agar Assay for Colony Formation is considered the most stringent assay for detecting malignant transformation of cells. In this assay the cells are cultured in medium with low percentage of agar.\n(§4) An exemplary procedure for the assay follows."}, "LNCaP": {"tested_on": "LNCaP", "experiment": "In vitro soft agar colony forming growth assay", "conditions": "Homo sapiens, 168 h, one week", "experimental": "as §3, §4"}, "MCF-7 [6]": {"tested_on": "MCF-7", "experiment": "In vitro soft agar colony forming growth assay", "conditions": "Homo sapiens, MCF7, 168 h; MCF-7, soft agar, one week", "experimental": "as §3, §4"}, "MDAMB231 [7]": {"tested_on": "MDAMB231", "experiment": "In vitro soft agar colony forming growth assay", "conditions": "Homo sapiens, MDA-MB-231, 168 h; MDAMB231, soft agar, one week; read-out: IC 50", "experimental": "as §3, §4"}, "PC3": {"tested_on": "PC3", "experiment": "In vitro soft agar colony forming growth assay", "conditions": "Homo sapiens, PC-3, 168 h, one week", "experimental": "as §3, §4"}, "T47D": {"tested_on": "T47D", "experiment": "In vitro soft agar colony forming growth assay", "conditions": "Homo sapiens, 168 h, one week", "experimental": "as §3, §4"}, "[8]": {"tested_on": "breast cancer cells MDA MB 231", "experiment": "In vitro 3D primary sphere forming stem cell assay", "experimental": "(§5) This assay measures the ability of cancer stem cells to form spheres in a serum free media where the spheres are in a suspended form. Through this assay we evaluated the potency of the compounds of the invention to kill cancer stem cells in comparison with the known chemotherapeutic agent Cisplatin.\n(§6) An exemplary procedure for the assay follows. Cells were grown in three dimensions on a plastic substrate, harvested in suspension in serum-free media, then the cells in the sample were trypsinized and a single cell suspension was formed by passing through a cell strainer. The cells were diluted according to the predetermined plating efficiency for the cell line being studied by suspending the cells in stem cell culture medium. 100 uL of this suspension was added into each well of a 96 well suspension plate, and the plate was incubated at 37 degrees Celsius in 5% CO2 atmosphere for 24 hours, then 2 uL of appropriate concentrations of the compounds of the invention and cisplatin were added into each respective well along with 100 uL of stem cell culture medium, and the plates were incubated at 37 degrees Celsius under 5% CO2 atmosphere for 72 hours. 2.5 uL of the compounds of the invention and cisplatin were added to each respective well along with 50 uL of stem cell culture medium and then the plates were incubated at 37 degrees Celsius under 5% CO2 atmosphere for 72 hours. 3 uL of appropriate concentrations of the compounds of the invention and cisplatin were added to each respective well along with 50 uL of stem cell culture medium and then the plates were incubated at 37 degrees Celsius under 5% CO2 atmosphere for 72 hours, then the spheres formed were observed under a microscope then counted and scored by size.\n(§7) Results of the in vitro 3D sphere forming stem cell assay are set forth in a tabular manner. The number in each box is the total number of spheres formed in the presence of either cisplatin or compound I-2 or compound I-3 at each drug concentration. GC refers to a growth control performed in the absence of drug or solvent (DMSO). GCD refers to a growth control performed in the absence of drug, but in the presence of DMSO."}, "breast cancer cells T47D": {"tested_on": "breast cancer cells T47D", "experiment": "In vitro 3D primary sphere forming stem cell assay", "experimental": "as §5, §6, §7"}, "[9]": {"tested_on": "prostate cancer cells DU145", "experiment": "In vitro 3D primary sphere forming stem cell assay", "experimental": "as §5, §6, §7"}, "[10]": {"tested_on": "prostate cancer cells LNCaP", "experiment": "In vitro 3D primary sphere forming stem cell assay", "experimental": "as §5, §6, §7"}, "[11]": {"tested_on": "prostate cancer cells PC3", "experiment": "In vitro 3D primary sphere forming stem cell assay", "experimental": "as §5, §6, §7"}}}
{"smiles": "COc1cc2c(OC3OCC(OC)C(OC)C3O)c3c(c(-c4ccc5c(c4)OCO5)c2cc1OC)C(=O)OC3", "note": "(stereo not drawn) [I-2]", "values": [{"measurement": "IC50", "setting": "DU145 [1]", "result": 2.45, "unit": "µM"}, {"measurement": "IC50", "setting": "L 929", "result": 1.38, "unit": "µM"}, {"measurement": "IC50", "setting": "MCF-7 [2]", "result": 0.954, "unit": "µM"}, {"measurement": "IC50", "setting": "[3]", "result": "No Activity"}, {"measurement": "IC50", "setting": "MDAMB231 [4]", "result": 0.331, "unit": "µM"}, {"measurement": "anticancer activity in cancer cell lines as compared to cisplatin", "setting": "cancer cell lines", "result": "high anticancer activity"}, {"measurement": "IC50", "setting": "DU145 [5]", "result": 3.16, "unit": "µM"}, {"measurement": "IC50", "setting": "LNCaP", "result": 0.7, "unit": "µM"}, {"measurement": "IC50", "setting": "MCF-7 [6]", "result": 0.62, "unit": "µM"}, {"measurement": "IC50", "setting": "MDAMB231 [7]", "result": 3.63, "unit": "µM"}, {"measurement": "IC50", "setting": "PC3", "result": 0.26, "unit": "µM"}, {"measurement": "IC50", "setting": "T47D", "result": 2.39, "unit": "µM"}, {"measurement": "numbers of primary spheres formed, compared with cisplatin", "setting": "[8]; MDA MB 231", "result": "significantly less"}, {"measurement": "# of 3D Primary Spheres Formed of Cells MDA MB231 (±SD)", "setting": "[8]; final conc. 0.125 μM", "result": "60(±9)"}, {"measurement": "# of 3D Primary Spheres Formed of Cells MDA MB231 (±SD)", "setting": "[8]; final conc. 1.25 μM", "result": "32(±5)"}, {"measurement": "# of 3D Primary Spheres Formed of Cells MDA MB231 (±SD)", "setting": "[8]; final conc. 12.5 μM", "result": "14(±2)"}, {"measurement": "# of 3D Primary Spheres Formed of Cells MDA MB231 (±SD)", "setting": "[8]; final conc. 125 μM", "result": "0(±0)"}, {"measurement": "# of 3D Primary Spheres Formed of Cells MDA MB231 (±SD)", "setting": "[8]; final conc. 1250 μM", "result": "0(±0)"}, {"measurement": "numbers of primary spheres formed, compared with cisplatin", "setting": "breast cancer cells T47D; T47D", "result": "significantly less"}, {"measurement": "# of 3D Primary Spheres Formed of Cells T47D (±SD)", "setting": "breast cancer cells T47D; final conc. 0.125 μM", "result": "84(±8)"}, {"measurement": "# of 3D Primary Spheres Formed of Cells T47D (±SD)", "setting": "breast cancer cells T47D; final conc. 1.25 μM", "result": "34(±5)"}, {"measurement": "# of 3D Primary Spheres Formed of Cells T47D (±SD)", "setting": "breast cancer cells T47D; final conc. 12.5 μM", "result": "28(±7)"}, {"measurement": "# of 3D Primary Spheres Formed of Cells T47D (±SD)", "setting": "breast cancer cells T47D; final conc. 125 μM", "result": "14(±4)"}, {"measurement": "# of 3D Primary Spheres Formed of Cells T47D (±SD)", "setting": "breast cancer cells T47D; final conc. 1250 μM", "result": "0(±0)"}, {"measurement": "numbers of primary spheres formed, compared with cisplatin", "setting": "[9]; DU145", "result": "significantly less"}, {"measurement": "# of 3D Primary Spheres Formed of Cells DU145 (±SD)", "setting": "[9]; final conc. 0.125 μM", "result": "53(±5)"}, {"measurement": "# of 3D Primary Spheres Formed of Cells DU145 (±SD)", "setting": "[9]; final conc. 1.25 μM", "result": "41(±4)"}, {"measurement": "# of 3D Primary Spheres Formed of Cells DU145 (±SD)", "setting": "[9]; final conc. 12.5 μM", "result": "18(±7)"}, {"measurement": "# of 3D Primary Spheres Formed of Cells DU145 (±SD)", "setting": "[9]; final conc. 125 μM", "result": "7(±1)"}, {"measurement": "# of 3D Primary Spheres Formed of Cells DU145 (±SD)", "setting": "[9]; final conc. 1250 μM", "result": "0(±0)"}, {"measurement": "numbers of primary spheres formed, compared with cisplatin", "setting": "[10]; LNCaP", "result": "significantly less"}, {"measurement": "# of 3D Primary Spheres Formed of Cells LNCaP (±SD)", "setting": "[10]; final conc. 0.125 μM", "result": "98(±17)"}, {"measurement": "# of 3D Primary Spheres Formed of Cells LNCaP (±SD)", "setting": "[10]; final conc. 1.25 μM", "result": "49(±6)"}, {"measurement": "# of 3D Primary Spheres Formed of Cells LNCaP (±SD)", "setting": "[10]; final conc. 12.5 μM", "result": "6(±2)"}, {"measurement": "# of 3D Primary Spheres Formed of Cells LNCaP (±SD)", "setting": "[10]; final conc. 125 μM", "result": "0(±0)"}, {"measurement": "# of 3D Primary Spheres Formed of Cells LNCaP (±SD)", "setting": "[10]; final conc. 1250 μM", "result": "0(±0)"}, {"measurement": "numbers of primary spheres formed, compared with cisplatin", "setting": "[11]; PC3", "result": "significantly less"}, {"measurement": "# of 3D Primary Spheres Formed of Cells PC3 (±SD)", "setting": "[11]; final conc. 0.125 μM", "result": "81(±9)"}, {"measurement": "# of 3D Primary Spheres Formed of Cells PC3 (±SD)", "setting": "[11]; final conc. 1.25 μM", "result": "69(±3)"}, {"measurement": "# of 3D Primary Spheres Formed of Cells PC3 (±SD)", "setting": "[11]; final conc. 12.5 μM", "result": "63(±8)"}, {"measurement": "# of 3D Primary Spheres Formed of Cells PC3 (±SD)", "setting": "[11]; final conc. 125 μM", "result": "31(±6)"}, {"measurement": "# of 3D Primary Spheres Formed of Cells PC3 (±SD)", "setting": "[11]; final conc. 1250 μM", "result": "0(±0)"}]}
